Values joined by “and” are separate entries in the source; they are usually repeats but may differ in a detail not shown here. Equal values may be shown once.
Legend:
SV2A [1] = target: T1, SV2A (Homo sapiens, UniProt Q7L0J3); experiment: Steady-state (saturation) binding of 3H-UCB-J with 30 µM UCB1244283 or 1% DMSO (Fig. 4A)
T1 construct: expressed in transfected cells; host or cells: HEK293 (ATCC CRL-1573), crude membranes
Method: (§1) Ligand binding studies were carried out using crude membranes prepared from HEK293 cells (ATCC, CRL-1573) overexpressing mVenus-SV2AWT or SV2AEM. Membranes were prepared either from transiently transfected cells or from baculovirus-infected cells as described previously. Cells were washed with DPBS (Ca^2+ and Mg^2+ free), followed by resuspending in cold SH buffer (10 mM HEPES-Tris pH 7.4, 320 mM sucrose) containing protease inhibitor cocktail (MedChemExpress) to a density of 10^7 cells/ml. This cell suspension was homogenized by passing through a bead homogenizer (Isobiotec) with 10-micron clearance bead on ice. The lysate was then centrifuged at 4000 × g for 5 min at 4 °C, and the supernatant was aliquoted, frozen in liquid nitrogen, and stored at −80 °C. The mVenus fluorescence estimated using fluorescence size-exclusion chromatography (FSEC) was used to normalize expression levels of mVenus-SV2A mutants studied as detailed previously. For all binding studies, membranes containing […] protein (estimated by BCA method) per reaction were used.
An equal volume of dimethyl sulfoxide (DMSO) was added to control reactions. Reactions were arrested after 2 h by trapping the membranes on a Unifilter-GF/C 96-well filter plate pre-soaked with 0.1%(w/v) polyethyleneimine. Membranes were washed four times with 0.2 ml of cold binding buffer, dried, and 40 µl of scintillation liquid was added to each well. Radioactivity was monitored in MicroBeta2 plate counter. Residual binding observed in presence of either 10 µM ^1H-UCB-J or 10 µM ^1H-padsevonil was considered as background and subtracted from total binding. Estimates for Kd and Bmax were obtained by fitting the data to one site-specific binding curve using GraphPad Prism 10.

SV2AEM = target: T2, SV2AEM (Homo sapiens, UniProt Q7L0J3); experiment: Association kinetics of 3H-UCB-J after pre-incubation with UCB1244283 (Fig. 4F); assay type: binding
T2 construct: expressed in transfected cells; host or cells: HEK293 (ATCC CRL-1573), crude membranes (transient transfection or baculovirus)
T2 sequence (Q7L0J3 141-742): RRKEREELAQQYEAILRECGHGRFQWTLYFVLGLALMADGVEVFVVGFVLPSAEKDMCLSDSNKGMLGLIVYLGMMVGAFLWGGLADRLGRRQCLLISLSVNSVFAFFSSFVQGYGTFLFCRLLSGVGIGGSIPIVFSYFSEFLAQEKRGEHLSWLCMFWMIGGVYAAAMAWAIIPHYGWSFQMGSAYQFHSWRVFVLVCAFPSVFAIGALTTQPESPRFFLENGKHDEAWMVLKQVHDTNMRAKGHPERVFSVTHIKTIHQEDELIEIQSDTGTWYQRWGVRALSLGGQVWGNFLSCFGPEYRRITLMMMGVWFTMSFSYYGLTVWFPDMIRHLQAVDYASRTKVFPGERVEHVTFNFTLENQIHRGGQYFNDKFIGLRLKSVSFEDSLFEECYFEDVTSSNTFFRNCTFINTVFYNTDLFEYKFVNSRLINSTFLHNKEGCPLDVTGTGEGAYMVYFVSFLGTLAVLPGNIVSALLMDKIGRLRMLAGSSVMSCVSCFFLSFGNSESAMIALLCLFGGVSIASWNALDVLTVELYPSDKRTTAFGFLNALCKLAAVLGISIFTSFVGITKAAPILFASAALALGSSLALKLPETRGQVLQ
Method: as §1
Residual radioligand binding observed in presence of 10 µM of ^1H-UCB-J was considered as background binding.

[2] = target: T3, SV2AEM WT or SV2AEM F188A (Homo sapiens, UniProt Q7L0J3); experiment: Dissociation kinetics of 3H-UCB-J (Fig. 4E); assay type: binding; settings: WT
T3 construct: expressed in transfected cells; host or cells: HEK293 (ATCC CRL-1573), crude membranes
T3 sequence (Q7L0J3 141-742 F188A): as the sequence (Q7L0J3 141-742) above, with F48A counted along it
Method: as §1
(§2) After 2 h of incubation, ligand dissociation was initiated with 0.3 µM ^1H-UCB-J and radioactivity was monitored at indicated time points by trapping equal volume of membranes on PEI-treated Unifilter-GF/C 96-well filter plates. Dissociation half-life (t1/2) estimates were obtained by fitting the data to one-phase exponential decay using GraphPad Prism 10.

[3] = target: T4, SV2AEM WT or SV2AEM F188A (Homo sapiens, UniProt Q7L0J3, F188A); experiment: Dissociation kinetics of 3H-UCB-J (Fig. 4E); assay type: binding; settings: F188A
T4 construct: expressed in transfected cells; host or cells: HEK293 (ATCC CRL-1573), crude membranes
T4 sequence (Q7L0J3 141-742 F188A): as the sequence (Q7L0J3 141-742) above, with F48A counted along it
Method: as §1, §2

[4] = system: tonic and clonic convulsions; design: method as in Daniels et al., Br J Pharmacol. 2013; settings: UCB1244283 alone; ref Daniels et al., Br J Pharmacol. 2013; cited from earlier work
SV2A [5] = target: T1, SV2A; experiment: Reduction of 3H-padsevonil (50 nM) binding by UCB1244283 (Fig. 5F); settings: for 3H-Padsevonil binding (%): no UCB1244283 = 100%
Method: Binding observed with SV2AWT was defined as 100%. Data are shown as mean ± s.d.; n = 6 biological replicates. […] Data are shown as mean ± s.d.; n = 6 biological replicates. Significance values were obtained from ordinary one-way ANOVA test (n.s. not significant; **p-value = 0.0064; ****p-value < 0.0001). Source data for (C, F) are provided as a Source data file.
as §1

T1 sequence (Q7L0J3 whole entry): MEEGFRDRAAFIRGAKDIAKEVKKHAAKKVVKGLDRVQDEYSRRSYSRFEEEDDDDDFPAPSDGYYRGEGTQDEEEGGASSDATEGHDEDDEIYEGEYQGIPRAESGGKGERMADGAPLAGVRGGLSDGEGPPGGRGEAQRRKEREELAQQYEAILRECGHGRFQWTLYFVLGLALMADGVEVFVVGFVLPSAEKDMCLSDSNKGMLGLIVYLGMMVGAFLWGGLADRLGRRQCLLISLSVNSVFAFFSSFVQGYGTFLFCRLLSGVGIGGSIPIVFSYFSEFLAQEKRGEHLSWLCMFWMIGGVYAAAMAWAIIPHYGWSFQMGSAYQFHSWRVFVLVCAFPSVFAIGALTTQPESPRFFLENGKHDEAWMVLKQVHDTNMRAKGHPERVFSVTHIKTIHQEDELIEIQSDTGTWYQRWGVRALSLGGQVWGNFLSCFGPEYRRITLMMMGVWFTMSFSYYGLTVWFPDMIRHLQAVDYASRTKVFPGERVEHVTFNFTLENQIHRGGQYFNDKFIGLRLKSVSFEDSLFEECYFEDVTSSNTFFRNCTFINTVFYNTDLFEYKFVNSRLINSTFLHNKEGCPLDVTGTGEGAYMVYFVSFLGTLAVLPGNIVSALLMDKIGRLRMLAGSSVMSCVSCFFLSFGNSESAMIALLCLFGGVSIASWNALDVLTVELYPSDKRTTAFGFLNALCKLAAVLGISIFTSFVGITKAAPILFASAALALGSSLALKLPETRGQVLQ

## COc1ccccc1NC(=O)CC(C)Cc1cc(C)cc(C)c1 (centres unmarked) [UCB1244283]
SV2A [1]; 3H-UCB-J 0.78 nM
  3H-UCB-J Binding (f.mol/assay): 6 f.mol/assay and 7 f.mol/assay
SV2A [1]; 3H-UCB-J 1.56 nM
  3H-UCB-J Binding (f.mol/assay): 11 f.mol/assay and 8 f.mol/assay and 10 f.mol/assay and 13 f.mol/assay and 14 f.mol/assay
SV2A [1]; 3H-UCB-J 6.25 nM
  3H-UCB-J Binding (f.mol/assay): 35 f.mol/assay and 45 f.mol/assay and 39 f.mol/assay and 44 f.mol/assay and 54 f.mol/assay
SV2A [1]; 3H-UCB-J 12.50 nM
  3H-UCB-J Binding (f.mol/assay): 66 f.mol/assay and 56 f.mol/assay and 69 f.mol/assay and 73 f.mol/assay and 70 f.mol/assay and 60 f.mol/assay
SV2A [1]; 3H-UCB-J 25.00 nM
  3H-UCB-J Binding (f.mol/assay): 90 f.mol/assay and 106 f.mol/assay and 118 f.mol/assay and 84 f.mol/assay and 111 f.mol/assay
SV2A [1]; 3H-UCB-J 50.00 nM
  3H-UCB-J Binding (f.mol/assay): 82 f.mol/assay and 91 f.mol/assay and 128 f.mol/assay and 130 f.mol/assay and 116 f.mol/assay and 122 f.mol/assay
SV2A [1]; 3H-UCB-J 100.00 nM
  3H-UCB-J Binding (f.mol/assay): 104 f.mol/assay and 70 f.mol/assay and 121 f.mol/assay and 105 f.mol/assay and 88 f.mol/assay and 115 f.mol/assay
SV2AEM; pre-incubate 10 μM UCB1244283, 0 min
  3H-UCB-J Binding (%): 0.02% and 0.00168%
SV2AEM; pre-incubate 10 μM UCB1244283, 0.5 min
  3H-UCB-J Binding (%): 0.16% and 0.14%
SV2AEM; pre-incubate 10 μM UCB1244283, 1 min
  3H-UCB-J Binding (%): 0.20% and 0.18%
SV2AEM; pre-incubate 10 μM UCB1244283, 1.5 min
  3H-UCB-J Binding (%): 0.16% and 0.22%
SV2AEM; pre-incubate 10 μM UCB1244283, 2 min
  3H-UCB-J Binding (%): 0.23% and 0.25%
SV2AEM; pre-incubate 10 μM UCB1244283, 2.5 min
  3H-UCB-J Binding (%): 0.16% and 0.30%
SV2AEM; pre-incubate 10 μM UCB1244283, 3 min
  3H-UCB-J Binding (%): 0.29% and 0.33%
SV2AEM; pre-incubate 10 μM UCB1244283, 3.5 min
  3H-UCB-J Binding (%): 0.30% and 0.35%
SV2AEM; pre-incubate 10 μM UCB1244283, 4 min
  3H-UCB-J Binding (%): 0.29% and 0.36%
SV2AEM; pre-incubate 10 μM UCB1244283, 4.5 min
  3H-UCB-J Binding (%): 0.41% and 0.37%
SV2AEM; pre-incubate 10 μM UCB1244283, 5 min
  3H-UCB-J Binding (%): 0.39%
SV2AEM; pre-incubate 30 μM UCB1244283, 0 min
  3H-UCB-J Binding (%): 0.00112% and 0.00142%
SV2AEM; pre-incubate 30 μM UCB1244283, 0.5 min
  3H-UCB-J Binding (%): 0.10%
SV2AEM; pre-incubate 30 μM UCB1244283, 1 min
  3H-UCB-J Binding (%): 0.11%
SV2AEM; pre-incubate 30 μM UCB1244283, 1.5 min
  3H-UCB-J Binding (%): 0.13% and 0.12%
SV2AEM; pre-incubate 30 μM UCB1244283, 2 min
  3H-UCB-J Binding (%): 0.14%
SV2AEM; pre-incubate 30 μM UCB1244283, 2.5 min
  3H-UCB-J Binding (%): 0.14% and 0.15%
SV2AEM; pre-incubate 30 μM UCB1244283, 3 min
  3H-UCB-J Binding (%): 0.15%
SV2AEM; pre-incubate 30 μM UCB1244283, 3.5 min
  3H-UCB-J Binding (%): 0.14% and 0.15%
SV2AEM; pre-incubate 30 μM UCB1244283, 4 min
  3H-UCB-J Binding (%): 0.16%
SV2AEM; pre-incubate 30 μM UCB1244283, 4.5 min
  3H-UCB-J Binding (%): 0.22% and 0.16%
SV2AEM; pre-incubate 30 μM UCB1244283, 5 min
  3H-UCB-J Binding (%): 0.23% and 0.19%
[2]; 30 µM UCB1244283, 0 min
  3H-UCB-J Binding (%): 159.90% and 202.86% and 206.18%
[2]; 30 µM UCB1244283, 4 min
  3H-UCB-J Binding (%): 62.83% and 91.12% and 108.82%
[2]; 30 µM UCB1244283, 5 min
  3H-UCB-J Binding (%): 85.26% and 105.06% and 94.83%
[2]; 30 µM UCB1244283, 6 min
  3H-UCB-J Binding (%): 84.91% and 66.93% and 87.39%
[2]; 30 µM UCB1244283, 7 min
  3H-UCB-J Binding (%): 43.33% and 65.94% and 53.85%
[2]; 30 µM UCB1244283, 8 min
  3H-UCB-J Binding (%): 39.38% and 72.33% and 39.29%
[2]; 30 µM UCB1244283, 9 min
  3H-UCB-J Binding (%): 42.32% and 69.81% and 52.93%
[2]; 30 µM UCB1244283, 10 min
  3H-UCB-J Binding (%): 57.05% and 78.11% and 55.34%
[2]; 30 µM UCB1244283, 20 min
  3H-UCB-J Binding (%): 16.75% and 27.97% and 21.29%
[2]; 30 µM UCB1244283, 25 min
  3H-UCB-J Binding (%): 30.01% and 19.16% and 35.10%
[2]; 30 µM UCB1244283, 50 min
  3H-UCB-J Binding (%): 2.00% and 8.63% and 4.06%
[2]; 30 µM UCB1244283, 60 min
  3H-UCB-J Binding (%): 0.00%
[2]; 30 µM UCB1244283, 70 min
  3H-UCB-J Binding (%): 13.54% and 8.21%
[3]; 30 µM UCB1244283, 0 min
  3H-UCB-J Binding (%): 110.44% and 123.64%
[3]; 30 µM UCB1244283, 4 min
  3H-UCB-J Binding (%): 30.89% and 37.36%
[3]; 30 µM UCB1244283, 7 min
  3H-UCB-J Binding (%): 29.68% and 19.59%
[3]; 30 µM UCB1244283, 8 min
  3H-UCB-J Binding (%): 17.69% and 24.42%
[3]; 30 µM UCB1244283, 9 min
  3H-UCB-J Binding (%): 11.91% and 16.05%
[3]; 30 µM UCB1244283, 10 min
  3H-UCB-J Binding (%): 2.24% and 11.65%
[3]; 30 µM UCB1244283, 15 min
  3H-UCB-J Binding (%): -0.26% and 9.40%
[3]; 30 µM UCB1244283, 25 min
  3H-UCB-J Binding (%): -3.97% and 3.97%
[3]; 30 µM UCB1244283, 30 min
  3H-UCB-J Binding (%): -0.60% and 3.19%
[3]; 30 µM UCB1244283, 40 min
  3H-UCB-J Binding (%): 2.93% and 0.35%
[3]; 30 µM UCB1244283, 50 min
  3H-UCB-J Binding (%): 6.38% and 7.42%
[3]; 30 µM UCB1244283, 60 min
  3H-UCB-J Binding (%): 10.53% and 0.69%
[3]; 30 µM UCB1244283, 70 min
  3H-UCB-J Binding (%): 5.09% and -0.95%
[4]
  effect against convulsions: clear protective effect against tonic and clonic convulsions
SV2A [5]
  displacement of padsevonil from SV2A: can displace padsevonil from SV2A in a dose-dependent manner
SV2A [5]; UCB1244283 10 μM
  3H-Padsevonil binding (%): 91.0284% and 102.553% and 101.386% and 86.5062% and 91.3202%
SV2A [5]; UCB1244283 30 μM
  3H-Padsevonil binding (%): 87.2356% and 88.6944% and 95.6966% and 92.1955% and 71.6265% and 83.5886%
SV2A [5]; UCB1244283 50 μM
  3H-Padsevonil binding (%): 81.1087% and 81.984% and 86.5062% and 85.6309% and 65.7914% and 73.0853%
SV2A [5]; UCB1244283 100 μM
  3H-Padsevonil binding (%): 69.7301% and 72.0642% and 78.9205% and 76.5864% and 67.5419%
SV2A [5]; UCB1244283 500 μM
  3H-Padsevonil binding (%): 70.4595% and 69.4384% and 72.6477% and 70.0219% and 59.2268% and 71.4807%

From article PMC12663137 (Nature Communications, 2025)
